According to patent US20080031968A1, “Methods for increasing cellular energy expenditure” (priority 2005, published 2008):

Key:
[1] = tested on: KK-Ay mice; assay: In vivo VLDL TG production (Tyloxapol) in KK-Ay mice; set-up: species or system mouse; settings: 1 week of CA feeding, chow and high-fat diet
[2] = tested on: KK-Ay and C57BL/6J mice; assay: Tissue mRNA levels by quantitative RT-PCR after CA supplementation; format: in vivo, mouse
Protocol: (§1) Male C57BL/6J, KK-Ay, and ob/ob (C57BL/6J background) mice, 6-10 weeks of age, were obtained from Elevage Janvier (Le Genest St. Isle, France), CLEA Japan Inc. (Tokyo, Japan), and The Jackson Laboratory (Bar Harbor, Me., USA), respectively. All mice were maintained in a temperature-controlled (23° C.) facility with a 12-hour light/dark cycle and were given free access to food and water. The study protocols were approved by the institutional review boards. The body weight and food intake were measured every second day. The control and high-fat diet was obtained from UAR (Villemoisson sur Orge, France). […] The mice were fasted 4 hours before harvesting blood for subsequent lipid measurements, and tissues for RNA isolation, lipid measurements, and histology.
Total RNA was extracted from frozen tissue samples or cells using the RNeasy kit (QIAGEN, Courtaboeuf, France). cDNA was synthesized from total RNA with the SuperScript First-Strand Synthesis System (Invitrogen) and random hexamer primers. The real-time PCR measurement of individual cDNAs was performed using SYBR green dye to measure duplex DNA formation with the LightCycler System (Roche Diagnostics, Meylan, France). The sequences of the primer sets used are available online at http://www-igbmc.ustrasbg.fr/Departments/Dep_V/Dep_VA/Publi/Paper.html.

[3] = tested on: mouse SREBP-1c promoter; assay: SREBP-1c promoter luciferase reporter assay in McA-RH7777 cells; format: cell-based; settings: McA-RH7777 rat hepatoma cells, LXRα transfection and/or LXR and RXR agonists
Protocol: The LXR response elements in pSREBP-1c324-Luc were mutated for promoter analysis using the Quick Change Site-Directed Mutagenesis Kit (Stratagene, La Jolla, Calif., USA).
The rat hepatoma cell line McA-RH7777 was obtained from ATCC (Manassas, Va., USA). […] Transfections were performed in 96-well plates using Lipofectamine 2000 (Invitrogen, Cergy Pontoise, France). Each well contained 64 ng luciferase reporter and 4 ng of β-galactosidase expression plasmid. We transfected 16 ng RXRα, 16 ng LXRα, 16 ng LRH-1, 32 ng SHP expression plasmids, or the corresponding empty expression vectors. After 6 hours of incubation with the DNA-lipofectamine complexes, the transfection medium was exchanged for medium with or without the indicated ligands. Ligands for LXR and RXR were dissolved in ethanol or DMSO and added to the cells in DMEM supplemented with 10% lipoprotein-deficient serum. To suppress SREBP-1c activation by processing, leading to feed-forward induction of SREBP-1c expression, the medium used for the SREBP-1c promoter study was also supplemented with 10 μg/ml cholesterol and 1 μg/ml 25-hydroxycholesterol. Luciferase measurements were normalized to β-galactosidase activity.

[4] = tested on: wild-type and LXRα/β-/- mice; assay: CA diet in wild-type and LXRα/β-/- mice; format: in vivo, mouse; settings: 0.5% CA for 3 days
Protocol: as §1
To determine whether LXR is essential for the TG-lowering effect of bile acids, we used LXRα/LXRβ double-knockout mice ([…]).

[5] = tested on: C57BL/6J mice; assay: Diet-induced obesity in C57BL/6J mice; format: in vivo, mouse
Protocol: (§2) Male C57BL/6J and KK-Ay mice, 6-7 weeks of age, were obtained from Charles River Laboratories France (l'Arbresle, France) and CLEA Japan Inc. (Tokyo, Japan), respectively. […] All mice were maintained in a temperature-controlled (23° C.) facility with a 12 h light/dark cycle and were given free access to food and water. The control and high-fat diet was obtained from UAR (Villemoison surOrge, France). […] GW4064 was suspended in peanut oil and mixed with the high fat diet at a concentration of 180 mg per kg of food. […] The mice were fasted 4 h before harvesting blood for subsequent blood measurements, and tissues for RNA isolation, lipid measurements and histology. Oxygen consumption was measured using the Oxymax apparatus (Columbus Instruments, Columbus, Ohio).
(§3) An OGTT was performed in animals that were fasted overnight. Glucose was administered by gavage at a dose of 2 g/kg. An IPITT was done in 4 h fasted animals. Insulin was injected at a dose of 0.75 U/kg. Glucose quantification was done with the Maxi Kit Glucometer 4 (Bayer Diagnostic, Puteaux, France) or Glucose RTU (bioMérieux Inc., Marcy l'Etoile, France). Plasma insulin concentrations were measured using ELISA (Cristal Chem Inc., Downers Grove, Ill.). Nonesterified fatty acids, triglycerides, ketone bodies, BA and total cholesterol were determined by enzymatic assays (Roche, Mannheim, Germany). cAMP was measured using the cAMP-Screen system (Applied Biosystems, Bedford, Mass.).
Pieces of mouse tissues were fixed in Bouin's solution, dehydrated in ethanol, embedded in paraffin, and cut at a thickness of 5 μm. Sections were deparaffinized, rehydrated, and stained with haematoxylin and eosin. Transmission electron microscopy was then performed.

[6] = tested on: C57BL/6J mice; assay: Indirect calorimetry (Oxymax); format: in vivo, mouse
Protocol: as §2

[7] = tested on: BAT of C57BL/6J mice; assay: BAT gene expression by microarray and Q-RT-PCR; format: in vivo, mouse
Protocol: For microarray analysis, RNA was isolated from BAT using the RNeasy mini kit (QIAGEN, Courtaboeuf, France). Equal amounts of RNA from mice in each group were pooled (n=3 or 4 mice) and used for cDNA synthesis. After second-strand cDNA synthesis (Life Technologies, Cergy Pontoise, France), in vitro transcription was performed with biotinylated UTP and CTP (Enzo Diagnostics, Farmingdale, N.Y.). Fragmented cRNA samples were hybridized to the Affymetrix MOE430A microarray. The raw data was analyzed using the Microarray Suite Software version 5.0 (MAS5.0, Affymetrix, Santa Clara, Calif.).

[8] = tested on: wildtype and D2-/- mice; assay: Diet-induced obesity in D2-/- mice and littermate controls; format: in vivo, mouse
Protocol: as §2
Next, we used mice with a targeted disruption of the D2 gene (D2−/− mice) and littermate controls in a diet-induced obesity study for 50 days.

[9] = molecular target: T1, TGR5 (Homo sapiens, UniProt Q8TDU6); assay: cAMP response element (CRE)-luciferase reporter assay with TGR5; format: cell-based; settings: cells co-transfected with TGR5 expression plasmid and CRE-driven luciferase reporter
T1 construct: expressed in transfected cells
T1 sequence (Q8TDU6 1-330): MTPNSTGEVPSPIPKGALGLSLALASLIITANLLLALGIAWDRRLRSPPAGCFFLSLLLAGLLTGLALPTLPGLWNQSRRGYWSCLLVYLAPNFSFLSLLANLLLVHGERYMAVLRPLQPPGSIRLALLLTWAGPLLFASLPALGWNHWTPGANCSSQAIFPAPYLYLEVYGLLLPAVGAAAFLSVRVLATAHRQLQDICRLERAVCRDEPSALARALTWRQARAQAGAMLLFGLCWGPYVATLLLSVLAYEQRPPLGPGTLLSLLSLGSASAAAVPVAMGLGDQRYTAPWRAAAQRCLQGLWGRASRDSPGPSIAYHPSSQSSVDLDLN
Excerpt: Since a synthetic FXRα agonist was unable to phenocopy the effects of BAs on energy expenditure, we focused our attention on FXRα-independent signaling events stimulated by BAs. […] We used a cAMP response element (CRE)-luciferase reporter assay to confirm that TGR5 is a BA receptor.
We used quantitative RT-PCR to measure the expression of D2 and TGR5 mRNAs in selected mouse tissues.

[10] = tested on: HSMM; assay: cAMP levels in human skeletal muscle myoblasts; format: cell-based; settings: 1 mM IBMX, 30 minutes
Protocol: HSMM were obtained from Cambrex (Walkersville, Md.) and were cultured according to the suppliers instructions. […] For the cAMP measurements, cells were preincubated 12 h in Opti-MEM (Life Technologies, Cergy Pontoise, France), supplemented with 1 mM IBMX. Then medium was changed and cells were incubated for another 1 h in Opti-MEM with 1 mM IBMX, after which the medium was replaced for Opti-MEM with 1 mM IBMX and the indicated compounds. After 30 minutes the cells were lysed for cAMP analysis.

[11] = tested on: BAT; assay: cAMP levels in BAT of mice fed high fat diet with CA; format: in vivo, mouse; settings: mice fed high fat diet with CA vs control mice
Protocol: as §3

[12] = tested on: humans; settings: cited from earlier work
[13] = KK-Ay and C57BL/6J mice, 1 and 7 days CA in chow
[14] = high fat diet supplemented with CA, histology

Compound: C[C@H](CCC(=O)O)[C@H]1CC[C@H]2[C@@H]3[C@H](O)C[C@@H]4C[C@H](O)CC[C@]4(C)[C@H]3C[C@H](O)[C@]12C [CA, cholic acid]
- liver VLDL production [1]: significantly decreased
- hepatic expression of MCAD and LCAD ([2]; C57BL/6J mice, 1 and 7 days CA): significantly decreased
- expression of lipogenic genes in white adipose tissue ([2]; CA treatment): none of the lipogenic genes were lowered
- hepatic expression of SHP ([2]; CA treatment): robust induction
- hepatic expression of AceCS, ME and SCD-1 [2, 13]: significantly reduced
- hepatic expression of LXRA, LRH-1, FXR and SREBP-2 [2, 13]: No major changes
- hepatic expression of CPT-I, MCAD and LCAD ([2]; KK-Ay mice, CA): no change
- increase of SREBP-1c promoter activity [3]: attenuated
- decrease in serum TGs, SREBP-1c and ME ([4]; LXRα/β-/- mice): not observed
- SHP expression ([4]; wild-type and LXRα/β-/- animals): induced significantly
- serum TG ([4]; wild-type animals): decreased serum TG
- glucose tolerance ([5]; C57BL/6J mice with diet-induced obesity): improves glucose tolerance
- body weight gain ([5]; chow diet supplemented with CA): no effect
- high fat-induced changes in adipose mass and morphology ([5]; diet supplementation with CA): completely prevented
- weight gain ([5]; high fat diet supplemented with 0.5% CA): reduced the weight gain
- adipocyte hypertrophy in WAT and BAT [5, 14]: not observed
- liver steatosis [5, 14]: reversed
- 120-days of diet-induced weight gain ([5]; obese mice switched to high fat diet containing CA): reversed
- time to return to normal body weight ([5]; obese mice switched to high fat diet containing CA (F-FA)): ≤ 30 days
- CO2 production and O2 consumption ([6]; high fat diet containing CA vs high fat or normal diet): higher
- respiratory quotient (RQ=VCO2/VO2) ([6]; high fat diet supplemented with CA): not affected
- expression of PGC-1α, PGC-1β, UCP-1, UCP-3, ACO, mCPT-I and D2 in BAT ([7]; C57BL/6J mice fed 47 days, diet mixed with CA, Q-RT-PCR): significantly increased
- genes involved in control of energy expenditure incl. D2 in BAT (microarray) ([7]; high fat diet mixed with CA or CDCA for 9 days): upregulated
- development of obesity ([8]; D2-/- mice, CA added to high fat diet, 50 days): no effect
- diet induced obesity ([8]; wildtype mice, CA added to high fat diet, 50 days): prevented diet induced obesity
- expression of PGC-1α in BAT ([8]; wildtype mice, CA feeding): significantly induced
- luciferase expression [9]: increased luciferase expression in a dose-dependent manner
- cAMP levels [10]: increased cAMP levels in a dose-dependant fashion
- cAMP levels in BAT [11]: significantly elevated
- hepatotoxicity [12]: significant hepatotoxicity
